Read-outs that look alike come from different tables or passages of the source.
Columns and labels:
LMWPTP = molecular target: T1, LMWPTP (Homo sapiens, UniProt P24666); experiment: PTP inhibition assay (pNPP); type: biochemical
T1 sequence (P24666 1-158): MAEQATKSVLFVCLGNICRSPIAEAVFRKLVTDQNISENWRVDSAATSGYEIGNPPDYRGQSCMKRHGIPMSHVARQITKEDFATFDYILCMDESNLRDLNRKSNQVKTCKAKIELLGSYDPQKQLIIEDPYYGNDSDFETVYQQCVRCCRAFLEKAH

TbPTP1 = TbPTP1 (Trypanosoma brucei brucei, UniProt Q38AT7); experiment: PTP inhibition assay (pNPP); type: biochemical; settings: pNPP at Km, pH 7.0, 25° C.; read-out: IC50 TbPTP1
PTP1B = molecular target: T2, PTP1B (Homo sapiens, UniProt P18031); experiment: PTP inhibition assay (pNPP); type: biochemical; settings: pNPP at Km, pH 7.0, 25° C.
T2 sequence (P18031 1-435): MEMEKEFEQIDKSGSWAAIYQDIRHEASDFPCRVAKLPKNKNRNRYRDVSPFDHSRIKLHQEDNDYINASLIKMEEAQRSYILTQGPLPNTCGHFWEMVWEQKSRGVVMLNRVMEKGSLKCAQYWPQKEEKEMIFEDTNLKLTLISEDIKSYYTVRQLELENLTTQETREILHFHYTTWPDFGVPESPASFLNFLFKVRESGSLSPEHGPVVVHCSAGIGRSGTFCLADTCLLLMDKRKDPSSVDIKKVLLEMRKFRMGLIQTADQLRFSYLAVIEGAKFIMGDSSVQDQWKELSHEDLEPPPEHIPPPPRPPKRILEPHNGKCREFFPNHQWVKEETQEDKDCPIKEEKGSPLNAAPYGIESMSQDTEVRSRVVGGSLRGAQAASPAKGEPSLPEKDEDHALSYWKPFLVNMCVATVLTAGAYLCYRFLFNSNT

PEST = molecular target: T3, PEST (Homo sapiens, UniProt Q05209); experiment: PTP inhibition assay (pNPP); type: biochemical; settings: pNPP at Km, pH 7.0, 25° C.; read-out: IC50 PEST
T3 sequence (Q05209 1-780): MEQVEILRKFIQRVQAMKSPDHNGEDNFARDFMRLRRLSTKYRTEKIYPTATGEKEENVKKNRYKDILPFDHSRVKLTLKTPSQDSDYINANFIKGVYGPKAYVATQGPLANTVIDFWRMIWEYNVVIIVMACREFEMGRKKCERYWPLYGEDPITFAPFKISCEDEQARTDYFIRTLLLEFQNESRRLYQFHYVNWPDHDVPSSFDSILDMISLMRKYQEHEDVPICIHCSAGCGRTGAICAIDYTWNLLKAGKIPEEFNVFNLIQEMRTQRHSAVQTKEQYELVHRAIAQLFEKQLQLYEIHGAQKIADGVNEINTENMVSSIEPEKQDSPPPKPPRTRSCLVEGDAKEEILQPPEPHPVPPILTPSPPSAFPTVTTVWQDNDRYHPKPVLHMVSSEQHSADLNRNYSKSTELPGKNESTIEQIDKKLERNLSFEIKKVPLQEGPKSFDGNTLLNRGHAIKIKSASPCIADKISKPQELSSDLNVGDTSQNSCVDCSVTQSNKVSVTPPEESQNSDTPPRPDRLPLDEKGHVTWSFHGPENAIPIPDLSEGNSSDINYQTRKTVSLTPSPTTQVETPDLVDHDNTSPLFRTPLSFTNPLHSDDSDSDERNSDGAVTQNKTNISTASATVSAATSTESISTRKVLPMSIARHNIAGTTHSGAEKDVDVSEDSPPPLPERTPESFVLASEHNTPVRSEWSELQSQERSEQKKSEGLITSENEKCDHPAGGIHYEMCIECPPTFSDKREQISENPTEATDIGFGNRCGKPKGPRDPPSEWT

SHP2 = molecular target: T4, SHP2 (Homo sapiens, UniProt Q06124); experiment: SHP2 phosphatase inhibition assay (pNPP); type: biochemical; settings: pNPP at Km, pH 7.0, 25° C.; read-out: IC50 SHP2
T4 sequence (Q06124 224-528): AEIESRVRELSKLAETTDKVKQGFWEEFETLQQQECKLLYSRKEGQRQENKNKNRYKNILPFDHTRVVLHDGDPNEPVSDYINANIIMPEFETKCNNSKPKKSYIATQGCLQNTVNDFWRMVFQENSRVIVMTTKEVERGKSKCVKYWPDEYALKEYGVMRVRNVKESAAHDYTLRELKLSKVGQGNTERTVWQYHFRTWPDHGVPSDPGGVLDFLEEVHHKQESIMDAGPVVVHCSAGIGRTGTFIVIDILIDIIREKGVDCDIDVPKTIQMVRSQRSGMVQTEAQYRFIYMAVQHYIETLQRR

LAR = LAR (Homo sapiens, UniProt P10586); experiment: PTP inhibition assay (pNPP); type: biochemical
PTPα = PTPα (Homo sapiens, UniProt P18433); experiment: PTP inhibition assay (pNPP); type: biochemical
PTPβ = PTPβ (Homo sapiens, UniProt P23467); experiment: PTP inhibition assay (pNPP); type: biochemical
MKP3 = molecular target: T5, MKP3 (Homo sapiens, UniProt Q16828); experiment: PTP inhibition assay (pNPP); type: biochemical
T5 sequence (Q16828 1-381): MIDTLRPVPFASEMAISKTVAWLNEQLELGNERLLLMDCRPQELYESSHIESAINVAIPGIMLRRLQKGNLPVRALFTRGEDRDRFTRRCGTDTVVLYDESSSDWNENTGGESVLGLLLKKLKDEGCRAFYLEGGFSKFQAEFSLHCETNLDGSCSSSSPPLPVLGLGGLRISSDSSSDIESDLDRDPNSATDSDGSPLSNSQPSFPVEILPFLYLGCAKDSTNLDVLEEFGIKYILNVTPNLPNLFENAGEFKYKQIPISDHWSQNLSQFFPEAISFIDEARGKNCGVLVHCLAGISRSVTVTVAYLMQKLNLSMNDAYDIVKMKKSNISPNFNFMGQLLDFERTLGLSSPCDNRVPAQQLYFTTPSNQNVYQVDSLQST

VHX = molecular target: T6, VHX (Homo sapiens, UniProt Q9NRW4); experiment: PTP inhibition assay (pNPP); type: biochemical; settings: pNPP at Km, pH 7.0, 25° C.
T6 sequence (Q9NRW4 1-184): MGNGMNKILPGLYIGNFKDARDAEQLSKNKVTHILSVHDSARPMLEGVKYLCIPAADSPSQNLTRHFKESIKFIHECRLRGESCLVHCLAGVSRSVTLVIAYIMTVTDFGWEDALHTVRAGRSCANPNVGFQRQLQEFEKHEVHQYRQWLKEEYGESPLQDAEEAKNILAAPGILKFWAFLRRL

PTPμ = PTPμ (Homo sapiens, UniProt P28827); experiment: PTP inhibition assay (pNPP)
[1] = read-out: IC50 VHX (second VHX line of Table 15)

Sequence of PTPμ (P28827 21-1452): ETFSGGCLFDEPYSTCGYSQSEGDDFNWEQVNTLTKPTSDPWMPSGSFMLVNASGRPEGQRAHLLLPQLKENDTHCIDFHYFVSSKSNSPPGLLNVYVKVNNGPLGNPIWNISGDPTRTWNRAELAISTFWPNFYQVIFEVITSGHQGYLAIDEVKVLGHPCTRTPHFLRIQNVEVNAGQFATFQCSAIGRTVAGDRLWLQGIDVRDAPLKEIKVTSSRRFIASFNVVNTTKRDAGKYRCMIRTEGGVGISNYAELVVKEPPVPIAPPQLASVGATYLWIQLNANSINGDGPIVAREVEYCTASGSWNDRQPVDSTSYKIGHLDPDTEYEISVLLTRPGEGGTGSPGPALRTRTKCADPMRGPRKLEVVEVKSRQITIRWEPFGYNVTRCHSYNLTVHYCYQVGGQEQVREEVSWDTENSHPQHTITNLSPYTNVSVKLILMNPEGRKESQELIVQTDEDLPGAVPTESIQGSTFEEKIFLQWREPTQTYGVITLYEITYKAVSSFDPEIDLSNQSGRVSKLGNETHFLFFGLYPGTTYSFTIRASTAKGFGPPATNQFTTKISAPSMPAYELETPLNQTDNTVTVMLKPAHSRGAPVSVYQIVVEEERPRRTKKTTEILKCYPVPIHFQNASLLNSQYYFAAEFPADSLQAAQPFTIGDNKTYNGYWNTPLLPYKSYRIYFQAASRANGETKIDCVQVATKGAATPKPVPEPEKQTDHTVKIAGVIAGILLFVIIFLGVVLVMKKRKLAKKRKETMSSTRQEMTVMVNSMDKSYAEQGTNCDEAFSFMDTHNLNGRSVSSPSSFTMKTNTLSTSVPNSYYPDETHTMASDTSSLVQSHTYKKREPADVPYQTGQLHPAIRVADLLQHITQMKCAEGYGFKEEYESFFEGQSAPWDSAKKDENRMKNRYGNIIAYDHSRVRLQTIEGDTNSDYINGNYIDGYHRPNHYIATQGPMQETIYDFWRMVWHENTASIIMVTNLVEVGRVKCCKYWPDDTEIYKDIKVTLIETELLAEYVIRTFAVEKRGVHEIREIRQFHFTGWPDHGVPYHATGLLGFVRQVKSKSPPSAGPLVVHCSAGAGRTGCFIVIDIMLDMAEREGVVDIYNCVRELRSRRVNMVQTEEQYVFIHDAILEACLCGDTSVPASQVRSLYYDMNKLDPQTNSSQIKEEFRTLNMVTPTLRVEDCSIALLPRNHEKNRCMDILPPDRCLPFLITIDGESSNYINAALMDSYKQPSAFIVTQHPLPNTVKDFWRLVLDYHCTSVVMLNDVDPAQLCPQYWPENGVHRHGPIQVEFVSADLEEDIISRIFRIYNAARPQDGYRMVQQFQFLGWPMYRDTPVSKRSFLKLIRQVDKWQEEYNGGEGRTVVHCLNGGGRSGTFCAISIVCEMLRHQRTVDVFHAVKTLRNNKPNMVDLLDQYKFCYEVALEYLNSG
Sequence of TbPTP1 (Q38AT7 entry or part of it): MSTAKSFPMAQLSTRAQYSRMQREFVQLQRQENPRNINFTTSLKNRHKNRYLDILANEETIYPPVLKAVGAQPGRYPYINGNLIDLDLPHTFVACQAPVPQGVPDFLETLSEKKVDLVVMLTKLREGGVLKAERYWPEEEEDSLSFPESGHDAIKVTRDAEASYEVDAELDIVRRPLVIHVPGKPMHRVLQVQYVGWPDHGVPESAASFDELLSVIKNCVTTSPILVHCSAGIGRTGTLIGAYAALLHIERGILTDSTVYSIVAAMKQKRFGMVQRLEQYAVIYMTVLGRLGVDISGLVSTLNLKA
Sequence of PTPα (P18433 20-802): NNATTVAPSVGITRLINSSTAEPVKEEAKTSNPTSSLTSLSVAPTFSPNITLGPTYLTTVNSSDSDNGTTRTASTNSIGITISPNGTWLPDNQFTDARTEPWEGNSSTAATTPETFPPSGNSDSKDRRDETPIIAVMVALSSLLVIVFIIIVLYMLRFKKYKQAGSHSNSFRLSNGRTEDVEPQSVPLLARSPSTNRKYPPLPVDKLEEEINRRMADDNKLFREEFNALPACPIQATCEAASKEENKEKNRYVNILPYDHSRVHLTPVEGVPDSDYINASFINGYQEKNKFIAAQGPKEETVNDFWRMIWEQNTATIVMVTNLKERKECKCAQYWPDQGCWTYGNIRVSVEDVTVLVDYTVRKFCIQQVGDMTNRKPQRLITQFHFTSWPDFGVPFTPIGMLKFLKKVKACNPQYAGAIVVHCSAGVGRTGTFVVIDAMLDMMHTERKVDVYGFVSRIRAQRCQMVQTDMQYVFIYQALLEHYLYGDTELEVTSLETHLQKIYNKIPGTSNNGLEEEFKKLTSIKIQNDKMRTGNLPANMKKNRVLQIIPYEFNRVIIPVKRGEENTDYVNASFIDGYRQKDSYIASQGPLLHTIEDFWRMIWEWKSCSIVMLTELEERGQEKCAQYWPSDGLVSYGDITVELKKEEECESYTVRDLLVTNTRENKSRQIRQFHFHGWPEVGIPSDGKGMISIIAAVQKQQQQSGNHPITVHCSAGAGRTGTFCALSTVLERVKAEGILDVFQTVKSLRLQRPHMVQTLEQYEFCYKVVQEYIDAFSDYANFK
Sequence of PTPβ (P23467 23-1997): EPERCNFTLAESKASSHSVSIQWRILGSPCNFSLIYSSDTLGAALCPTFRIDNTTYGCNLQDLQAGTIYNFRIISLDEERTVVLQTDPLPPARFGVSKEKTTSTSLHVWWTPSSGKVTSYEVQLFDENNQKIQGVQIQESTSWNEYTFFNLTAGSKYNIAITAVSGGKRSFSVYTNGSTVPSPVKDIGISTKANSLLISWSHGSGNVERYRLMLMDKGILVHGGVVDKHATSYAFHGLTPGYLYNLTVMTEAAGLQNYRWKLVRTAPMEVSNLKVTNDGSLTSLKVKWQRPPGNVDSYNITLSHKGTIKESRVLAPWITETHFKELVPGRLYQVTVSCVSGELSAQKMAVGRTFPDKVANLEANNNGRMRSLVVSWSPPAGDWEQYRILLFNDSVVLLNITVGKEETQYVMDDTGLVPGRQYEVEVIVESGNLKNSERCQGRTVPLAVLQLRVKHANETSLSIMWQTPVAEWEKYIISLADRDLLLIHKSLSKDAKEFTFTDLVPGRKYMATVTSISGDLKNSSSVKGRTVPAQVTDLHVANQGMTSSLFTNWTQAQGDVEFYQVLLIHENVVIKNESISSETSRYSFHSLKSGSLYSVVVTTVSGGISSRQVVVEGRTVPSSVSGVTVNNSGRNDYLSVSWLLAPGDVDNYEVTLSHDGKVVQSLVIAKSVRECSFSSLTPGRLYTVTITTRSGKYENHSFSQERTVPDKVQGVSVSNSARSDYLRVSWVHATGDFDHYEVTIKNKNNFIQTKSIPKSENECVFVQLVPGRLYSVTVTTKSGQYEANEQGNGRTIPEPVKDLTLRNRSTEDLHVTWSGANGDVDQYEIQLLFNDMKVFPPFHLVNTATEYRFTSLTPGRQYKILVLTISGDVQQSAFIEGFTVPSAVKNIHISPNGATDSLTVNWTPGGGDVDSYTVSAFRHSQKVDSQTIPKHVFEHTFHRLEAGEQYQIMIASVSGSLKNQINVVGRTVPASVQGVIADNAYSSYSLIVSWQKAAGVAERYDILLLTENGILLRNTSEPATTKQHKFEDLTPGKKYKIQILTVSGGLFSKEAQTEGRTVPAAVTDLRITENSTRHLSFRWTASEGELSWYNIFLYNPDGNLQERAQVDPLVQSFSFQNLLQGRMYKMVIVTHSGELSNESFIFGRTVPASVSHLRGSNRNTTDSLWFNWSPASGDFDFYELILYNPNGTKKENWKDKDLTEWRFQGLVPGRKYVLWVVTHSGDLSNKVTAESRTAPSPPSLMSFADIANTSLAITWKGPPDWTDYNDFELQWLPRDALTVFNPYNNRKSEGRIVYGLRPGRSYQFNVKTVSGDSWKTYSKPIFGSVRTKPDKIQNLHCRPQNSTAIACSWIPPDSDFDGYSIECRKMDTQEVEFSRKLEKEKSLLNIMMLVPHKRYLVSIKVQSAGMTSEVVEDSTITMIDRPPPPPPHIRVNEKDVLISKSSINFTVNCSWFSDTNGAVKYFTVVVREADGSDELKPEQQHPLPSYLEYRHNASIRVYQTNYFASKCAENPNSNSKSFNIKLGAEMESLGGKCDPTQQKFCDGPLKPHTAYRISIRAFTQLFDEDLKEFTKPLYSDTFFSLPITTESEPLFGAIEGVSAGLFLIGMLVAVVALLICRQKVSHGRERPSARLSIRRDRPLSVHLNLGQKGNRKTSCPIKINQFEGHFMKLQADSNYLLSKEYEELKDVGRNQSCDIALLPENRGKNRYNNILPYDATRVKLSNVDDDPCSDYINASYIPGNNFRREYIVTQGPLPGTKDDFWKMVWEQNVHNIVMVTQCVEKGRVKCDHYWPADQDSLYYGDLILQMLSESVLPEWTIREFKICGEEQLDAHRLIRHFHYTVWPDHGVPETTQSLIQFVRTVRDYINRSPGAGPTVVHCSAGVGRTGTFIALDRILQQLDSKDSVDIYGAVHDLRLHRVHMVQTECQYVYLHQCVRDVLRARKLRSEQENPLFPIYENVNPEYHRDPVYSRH

| Structure (SMILES) | IC50 (LMWPTP; pNPP at Km, pH 7.0, 25° C.) [µM] | IC50 (TbPTP1) [µM] | IC50 (PTP1B) [µM] | IC50 (PEST) [µM] | IC50 (SHP2) [µM] | IC50 (LAR) [µM] | IC50 (PTPα) [µM] | IC50 (PTPβ) [µM] | IC50 (MKP3) [µM] | IC50 (VHX; read-out: IC50 VHX) [µM] | IC50 (PTPμ) [µM] | IC50 (LMWPTP; pH 7) [µM] | IC50 (VHX; [1]) [µM] | IC50 (VHX; IC50 VHX (second VHX line of Table 15)) [µM] | IC50 (VHX; IC50 VHX) [µM] |
| --- | --- | --- | --- | --- | --- | --- | --- | --- | --- | --- | --- | --- | --- | --- | --- |
| O=C(C(c1ccccc1)S(=O)(=O)O)N1CCCC2CCCCC21 (stereo not drawn) [Compound L319N53] | > 200 | > 200 | > 200 | > 200 | > 200 | > 200 | > 200 | > 200 | > 200 | > 200 | > 200 |  |  |  |  |
| O=C(Nc1ccc(N2CCOCC2)cc1)C(c1ccccc1)S(=O)(=O)O (stereo not drawn) [Compound L319M68] | 20 | > 200 | > 200 | > 200 | > 200 | > 200 | > 200 | > 200 | > 200 | > 200 | > 200 | 8.1 | > 200 |  |  |
| Cc1c(Br)cc(NC(=O)CS(=O)(=O)O)cc1Br | 4.2 | > 100 | > 100 |  | > 100 | > 100 | > 100 | > 100 |  |  | > 100 |  |  | > 100 | > 100 |
| CCCCc1ccc(NC(=O)C(=O)Nc2ccccc2NC(=O)C(c2ccccc2)S(=O)(=O)O)cc1 (stereo not drawn) [Compound L319-21-M06] | > 50 | > 50 | > 50 | > 50 | > 50 |  |  |  |  | > 50 |  |  |  |  |  |
| O=C(CS(=O)(=O)O)Nc1ccc2nc(C(F)(F)F)[nH]c2c1 | 1.86 | > 100 | > 100 | > 100 | > 100 | > 100 | > 100 | > 100 | > 100 | > 100 | > 100 |  | > 100 |  |  |
| O=C(C(c1ccccc1)S(=O)(=O)O)N1CCC(Cc2ccccc2)CC1 (stereo not drawn) [Compound L319N46] | > 200 | > 200 | > 200 | > 200 | > 200 | > 200 | > 200 | > 200 | > 200 | > 200 | > 200 |  |  |  |  |
| O=C(NCCNC(=O)C(c1ccccc1)S(=O)(=O)O)c1cccc(C(=O)c2ccccc2)c1 (stereo not drawn) [Compound L319-02-A60] | > 200 | > 200 | > 200 | > 200 | > 200 |  |  |  |  | > 200 |  |  |  |  |  |
| O=C(Nc1cccc(OCc2ccccc2)c1)C(=O)Nc1ccccc1NC(=O)C(c1ccccc1)S(=O)(=O)O (stereo not drawn) [Compound L319-21-M52] | > 50 | > 50 | > 50 | > 50 | > 50 |  |  |  |  | > 50 |  |  |  |  |  |

From patent publication US10494332B2, “Protein tyrosine phosphatases or SHP2 inhibitors and uses thereof” (Indiana University Research and Technology Corporation, priority 2015, dated 2019)
